# Results published in US8633250B2, “Cell repair and regeneration by suramin and related polysulfonated napthylureas” (MUSC Foundation for Research Development, priority 2006, dated 2014).
# What was measured:
# [1] = system: renal proximal tubule cells (RPTC); assay: RPTC scattering, fibroblast-like morphology and lamellipodia (bright field, phalloidin staining); assay type: cell-based, rabbit; conditions: for effect of inhibitor on suramin-induced fibroblast-like phenotype and RPTC scattering: 50 μM suramin 24 hr, 10 μM AG1478, 20 μM LY294002, 10 μM U0126 or 10 μM PP1
# Method: (§1) Isolation and culture of renal proximal tubules: Isolation and culture of renal proximal tubules were performed as described previously (Rodeheaver et al., 1990; Nowak and Schnellmann, 1995; Nowak and Schnellmann, 1996). Female New Zealand White rabbits (1.5-2.5 kg) were purchased from Myrtle's Rabbitry (Thompson Station, Tenn.). RPTC were isolated using the iron oxide perfusion method and grown in 6-well tissue culture dishes under improved conditions. The culture medium was an 1:1 mixture of DMEM/Ham's F-12 (without glucose, phenol red, or sodium pyruvate) supplemented with 15 mM HEPES buffer, 2.5 mM L-glutamine, 1 μM pyridoxine HCl, 15 mM sodium bicarbonate, and 6 mM lactate. Hydrocortisone (50 μM), selenium (5 ng/ml), human transferrin (5 μg/ml) bovine insulin (10 nM) and L-ascorbic acid-2-phosphate (50 μM) were added daily to fresh culture medium.
# (§2) Isolated tubules were plated at 1 mg protein/well in a 6-well plate. On day 2, RPTC were incubated in the presence and absence of various pharmacological inhibitors for different time periods as indicated in the figure legends. For some experiments, suramin was added to RPTC on day 3 and then incubated for 24 hr in the presence or absence of various inhibitors before samples were taken.
# Immunocytochemistry: After various treatments, RPTC were fixed with 10% buffered formalin, washed, permeabilized, and blocked with BSA. Fluorescein conjugated phalloidin was added and RPTC visualized by fluorescent microscopy.
# [2] = system: renal proximal tubule cells (RPTC); assay: Cell cycle analysis by flow cytometry: number of RPTC in S-phase; assay type: cell-based, rabbit; conditions: for effect of inhibitor on suramin-induced RPTC proliferation (number of RPTC in S-phase): 50 μM suramin 24 hr, 20 μM LY294002, 10 μM U0126 or 10 μM PP1
# Method: as §1, §2
# Cell cycle analysis: Cell cycle phase was determined using flow cytometry as previously described (Zhuang et al., 2004). Cells were harvested, stained with propidium iodide and the number of cells in S-phase of cell cycle determined.
# [3] = system: renal proximal tubule cells (RPTC); assay: MTT assay of RPTC proliferation; assay type: cell-based, rabbit; conditions: for effect of inhibitor on suramin-induced RPTC proliferation (MTT assay): 50 μM suramin 48 hr, 10 μM AG1478, 20 μM LY294002, 10 μM U0126 or 10 μM PP1
# Method: as §1, with “[…],” for “Schnellmann,”, “medium. Isolated tubules were plated at 1 mg protein/well in a 6-well plate. On day 2, RPTC were incubated in the presence and absence of various pharmacological inhibitors for different time periods as indicated in the figure legends. […] MTT assay: The 3-(4,5-dimethylthiazol-2-yl)-2,5-diphenyl-tetrazolium bromide (MTT) assay was used to assess cell proliferation (Kooistra et al., 1997; […] et al., 2002). Following a 48 hr exposure to various inhibitors or diluents, MTT was added (final concentration of 0.5 mg/ml) to individual cultures for an additional 30 min. Tetrazolium was released by dimethyl sulfoxide and optical density was determined with a spectrophotometer (570 nm). Data were normalized to diluent-treated cultures.” for “medium.”
# ERK1/2 = assay: Immunoblot of ERK1/2 phosphorylation in RPTC; assay type: cell-based, rabbit
# Method: (§3) Preparation of cell lysates and immunoblot analysis: After different treatments, RPTC were washed twice with PBS and harvested in lysis buffer (0.25 M Tris-HCl, pH 6.8, 4% SDS, 10% glycerol, 1 mg/ml bromophenol blue, and 0.5% 2-mercaptoethanol). Cells were disrupted by sonication for 15 seconds and lysates stored at −20 °C. Equal amounts of cellular protein lysate were separated on 10% polyacrylamide gels and transferred to nitrocellulose membranes. After treatment with 5% skim milk at 4 °C overnight, membranes were incubated with various antibodies for 1 hr, and then incubated with an appropriate horseradish-peroxidase conjugated secondary antibody (Amersham, Piscataway, N.J.). Bound antibodies were visualized following chemiluminescence detection on autoradiographic film.
# (§4) We evaluated whether the PI3K/Akt and/or ERK1/2 pathways are activated in RPTC in response to suramin. The activation of the PI3K and ERK1/2 pathways was measured using immunoblot analysis and antibodies that recognize phosphorylated Akt at serine 473 (a target of PI3K) and ERK1/2, respectively. Total Akt and ERK1/2 content was measured using immunoblot analysis and antibodies that recognize the Akt and ERK1/2 independent of their phosphorylation state to control for gel loading.
# Src = assay: Immunoblot of Src phosphorylation (Tyr416, Tyr527) in RPTC; assay type: cell-based, rabbit
# Method: as §3
# To determine whether suramin activates Src and whether Src mediates Akt activation, we examined the effect of suramin on Src phosphorylation and the effect of PP1 on suramin-induced Akt phosphorylation. Src activation requires dephosphorylation of tyrosine 527 (Zheng et al., 2000) and phosphorylation of tyrosine 416 in the catalytic domain (Leu and Maa, 2003). Src phosphorylation at tyrosine 416 was detected in control samples. Following suramin-treatment, Src phosphorylation increased within 10 min and returned to the basal level at 60 min (FIG. 8A). […] Thus, suramin-induced RPTC proliferation and scattering is dependent on Src activity and Src is required for activation of the PI3K/Akt signaling pathway.
# Akt = assay: Immunoblot of Akt phosphorylation in RPTC; assay type: cell-based, rabbit; conditions: for effect of inhibitor on Akt phosphorylation: pretreated 1 hr with 20 μM LY294002, or 10 μM PP1, or AG1478, 50 μM suramin 30 min
# Method: as §3
# as §4, with “loading. Suramin-induced Akt phosphorylation within 10 min, reached a maximum at 30 min and was sustained through 120 min of treatment (FIG. 6A). ERK1/2 phosphorylation also was induced within 10 min and maximal at 30 min, but decreased to the control levels at 120 min.” for “loading.”
# EGF receptor = assay: Immunoblot of EGF receptor phosphorylation (Tyr1068) in RPTC; assay type: cell-based, rabbit
# Method: as §3
# To determine whether suramin caused EGF receptor activation, we performed immunoblot analysis using an antibody against phosphorylated tyrosine 1068 of the EGF receptor. Total EGF receptor content was measured using immunoblot analysis and an antibody that recognizes the EGF receptor independent of its phosphorylation state to control for gel loading. […] Thus, suramin induced RPTC proliferation and scattering is not through the EGF receptor.
# [4] = system: renal proximal tubule cells (RPTC); assay: RPTC outgrowth from plated renal proximal tubules (photographs); assay type: cell-based, rabbit; conditions: after 24 hr exposed for 24 hr, 50 μM suramin, 10 ng/ml EGF or suramin+EGF
# Method: as §1, §2
# [5] = system: mouse renal ischemic/reperfusion (I/R) acute renal failure model; assay: Mouse renal ischemic/reperfusion (I/R) acute renal failure model, serum creatinine; assay type: in vivo
# Method: Experiments were designed to investigate whether suramin stimulated recovery of renal function in a mouse renal ischemic/reperfusion (I/R) acute renal failure model. Male C57BL/6 mice weighing 25-30 g were subjected to I/R injury using bilateral renal artery clamping for 26 min and then allowed to recover over time. The renal pedicles were isolated, but no clamps were applied in the sham group. Some mice subjected to I/R were treated with a single intravenous dose of suramin (0.001-10 mg/kg) or diluent 24 hr after reperfusion. Blood was collected at 24 and 48 hr after injury and serum creatinine levels measured as a marker of acute renal failure.
smiles,measurement,setting,value
"N#CC(=C(N)Sc1ccccc1N)C(C#N)=C(N)Sc1ccccc1N [U0126, 1,4-Diamino-2,3-dicyano-1,4-bis(2-aminophenylthio)butadiene]",effect of inhibitor on suramin-induced fibroblast-like phenotype and RPTC scattering,[1],had no effect
same,effect of inhibitor on suramin-induced RPTC proliferation (number of RPTC in S-phase),[2],had no effect on proliferation
same,effect of inhibitor on suramin-induced RPTC proliferation (MTT assay),[3],had no effect on proliferation
same,effect of inhibitor on ERK1/2 phosphorylation,"ERK1/2; pretreated with 10 μM U0126 for 1 hr, presence and absence of 50 μM suramin (30 min)",blocked ERK1/2 phosphorylation
Cc1ccc(-c2nn(C(C)(C)C)c3ncnc(N)c23)cc1 [PP1],effect of inhibitor on suramin-induced fibroblast-like phenotype and RPTC scattering,[1],blocked
same,effect of inhibitor on suramin-induced Src phosphorylation,"Src; PP1, suramin-treated RPTC",inhibition of suramin-induced Src and Akt phosphorylation
same,effect of inhibitor on suramin-induced RPTC proliferation (number of RPTC in S-phase),[2],inhibited RPTC proliferation in control and suramin-treated cells
same,effect of inhibitor on Akt phosphorylation,Akt,blocked suramin-induced phosphorylation of Akt
same,effect of inhibitor on suramin-induced RPTC proliferation (MTT assay),[3],inhibited RPTC proliferation in control and suramin-treated cells
"COc1cc2ncnc(Nc3cccc(Cl)c3)c2cc1OC [AG1478, 4-(3-chloroanilino)-6,7-dimethoxyquinazoline]",effect of inhibitor on EGF-induced fibroblast-like phenotype and scattering,"[1]; 10 ng/ml EGF 24 hr, 10 μM AG1478",blocked EGF-induced formation of the fibroblast-like phenotype and scattering
same,effect of inhibitor on suramin-induced fibroblast-like phenotype and RPTC scattering,[1],did not affect suramin-induced formation of the fibroblast-like phenotype and scattering
same,effect of inhibitor on Akt phosphorylation,Akt,did not affect suramin-induced phosphorylation of Akt
same,effect of inhibitor on suramin-induced RPTC proliferation (MTT assay),[3],did not affect suramin-induced RPTC proliferation
same,effect of inhibitor on EGF-induced EGF receptor phosphorylation,"EGF receptor; pretreated with 10 μM AG1478 for 1 hr, then EGF 10 min",inhibited EGF-induced EGF receptor phosphorylation
"O=c1cc(N2CCOCC2)oc2c(-c3ccccc3)cccc12 [LY294002, 2-(4-Morpholinyl)-8-phenyl-4H-1-benzopyran-4-one]",effect of inhibitor on suramin-induced fibroblast-like phenotype and RPTC scattering,[1],partially inhibited
same,effect of inhibitor on suramin-induced RPTC proliferation (number of RPTC in S-phase),[2],decreased suramin-induced proliferation
same,effect of inhibitor on Akt phosphorylation,Akt,blocked Akt phosphorylation
same,effect of inhibitor on suramin-induced RPTC proliferation (MTT assay),[3],decreased suramin-induced proliferation
Cc1ccc(C(=O)Nc2ccc(S(=O)(=O)O)c3cc(S(=O)(=O)O)cc(S(=O)(=O)O)c23)cc1NC(=O)c1cccc(NC(=O)Nc2cccc(C(=O)Nc3cc(C(=O)Nc4ccc(S(=O)(=O)O)c5cc(S(=O)(=O)O)cc(S(=O)(=O)O)c45)ccc3C)c2)c1 [suramin],formation of lamellipodia and intercellular contacts,"[1]; 50 μM suramin or 10 ng/ml EGF, 24 hr, phalloidin staining",increased the formation of lamellipodia and decreased intercellular contacts
same,RPTC morphology at the edge of the cell island (scattering),"[1]; 50 μM suramin, 24 hr, RPTC cultured 3 days","lost contact with their neighbors and became elongated, fibroblast-like cells"
same,reduced phosphorylation of Src at tyrosine 527 sustained through,Src; 50 μM suramin,≥ 120 min
same,time at which Src phosphorylation (tyrosine 416) returned to the basal level,Src; 50 μM suramin,60 min
same,time to increase of Src phosphorylation at tyrosine 416,Src; 50 μM suramin,≤ 10 min
same,time to reduced phosphorylation of Src at tyrosine 527,Src; 50 μM suramin,≤ 5 min
same,RPTC proliferation (S-phase),"[2]; 100 μM suramin, 24 hr, compared with 50 μM",did not further increase RPTC proliferation
same,RPTC in S-phase,"[2]; 24 hr treatment, four days following plating, suramin 50 μM, EGF 10 ng/ml, untreated approximately 20%",29%
same,number of RPTC in S-phase,"[2]; suramin concentrations lower than 50 μM, 24 hr",did not statistically increase the number of RPTC in S-phase
same,RPTC outgrowth,[4],stimulated RPTC outgrowth
same,Akt phosphorylation sustained through,"Akt; 50 μM suramin, 0-120 min",≥ 120 min
same,time of maximum Akt phosphorylation,"Akt; 50 μM suramin, 0-120 min",30 min
same,time to induction of Akt phosphorylation,"Akt; 50 μM suramin, 0-120 min",≤ 10 min
same,increase in the number of RPTC (MTT assay),"[3]; 48 hr exposure, 50 μM suramin, versus diluent controls",approximately 40%
same,renal function,"[5]; doses of suramin greater than or equal to 0.1 mg/kg, single intravenous dose 24 hr after reperfusion",completely restored renal function
same,recovery of renal function,"[5]; low doses (0.1 mg/kg), given after acute renal failure is fully established",complete recovery of renal function
same,serum creatinine levels,"[5]; single intravenous suramin dose between 0.003 and 0.03 mg/kg 24 hr after reperfusion, I/R plus diluent approximately 2 mg/dl",approximately 1 mg/dl
same,time at which ERK1/2 phosphorylation decreased to the control levels,"ERK1/2; 50 μM suramin, 0-120 min",120 min
same,time of maximal ERK1/2 phosphorylation,"ERK1/2; 50 μM suramin, 0-120 min",30 min
same,time to induction of ERK1/2 phosphorylation,"ERK1/2; 50 μM suramin, 0-120 min",≤ 10 min
same,EGF receptor phosphorylation (tyrosine 1068),"EGF receptor; 50 μM suramin, 10 ng/ml EGF or both for 10 min",did not detect phosphorylated EGF receptor
